Structures are written as SMILES. Where a name gives a salt, the structure may show the parent alone.

This test has as its target T1, IRAK4 (Homo sapiens, UniProt Q9NWZ3).
T1 construct: His (N); TEV cleavage site (N)
T1 sequence (Q9NWZ3 1-460): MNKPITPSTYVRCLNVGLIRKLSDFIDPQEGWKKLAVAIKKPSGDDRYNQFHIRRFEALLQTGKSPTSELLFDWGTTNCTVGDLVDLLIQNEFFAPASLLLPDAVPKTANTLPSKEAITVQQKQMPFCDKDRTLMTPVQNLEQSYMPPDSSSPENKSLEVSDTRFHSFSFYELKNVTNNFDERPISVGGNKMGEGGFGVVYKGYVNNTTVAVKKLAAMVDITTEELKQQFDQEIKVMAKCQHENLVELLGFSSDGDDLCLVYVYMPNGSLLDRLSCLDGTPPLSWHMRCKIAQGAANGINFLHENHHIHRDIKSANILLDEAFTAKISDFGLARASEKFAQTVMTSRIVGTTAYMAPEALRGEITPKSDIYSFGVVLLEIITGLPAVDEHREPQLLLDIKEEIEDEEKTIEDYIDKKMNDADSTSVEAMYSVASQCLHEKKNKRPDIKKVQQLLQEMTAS
As to the kind of experiment: IRAK4 Enzymatic Assay. The conditions noted are these: His-TEV-IRAK4 20 ng/well, ATP 2 μM, STK1-biotin peptide 300 nM, 3 hours at 30° C., FlashPlate radioactivity. The class given is biochemical. The method in brief: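 Recombinant His-TEV-tagged IRAK4 (20 ng/well) phosphorylates biotinylated STK1 peptide (300 nM) with 2 μM ATP plus [^33P]ATP, 3 h at 30 °C in pH 7.0 HEPES buffer with MgCl2 and MnCl2; compounds tested 20 μM to 1 nM. Reaction stopped with EDTA; incorporated radioactivity counted on streptavidin FlashPlates.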
A word on the IC50: it is the concentration that gives 50% inhibition. Regarding `Cc1c(-c2cccc(-c3ncc(-c4cnn(C5CCNCC5)c4)cn3)c2)cnn1C` [Example 15, 2-[3-(1,5-Dimethyl-1H-pyrazol-4-yl)-phenyl]-5-(1-piperidin-4-yl-1H-pyrazol-4-yl)-pyrimidine hydrochloride], the half-maximal inhibitory concentration (IC50) fell in the range of 0.1 to 1 µM.
With `CO[C@@H]1COCCC1N1CCC(n2cc(-c3cnc(-c4cccc(-c5cnn(C)c5)c4)nc3)cn2)CC1` (stereo partly drawn) [Example 122, 5-{1-[1-((S)-3-Methoxy-tetrahydro-pyran-4-yl)-piperidin-4-yl]-1H-pyrazol-4-yl}-2-[3-(1-methyl-1H-pyrazol-4-yl)-phenyl]-pyrimidine], the IC50 was in the range of 0.1 to 1 µM.
As for `Cn1cc(-c2cccc(-c3ncc(-c4cnn([C@H]5CC[C@H](C(=O)NCC(O)CO)CC5)c4)cn3)c2)cn1` (stereo partly drawn) [Example 242, Trans-4-(4-{2-[3-(1-Methyl-1H-pyrazol-4-yl)-phenyl]-pyrimidin-5-yl}-pyrazol-1-yl)-cyclohexanecarboxylic acid (2,3-dihydroxy-propyl)-amide], the figure is less than 0.1 µM.
In the case of `Cn1cc(-c2cccc(-c3ncc(-c4cnn(CCN5CCOCC5)c4)cn3)c2)cn1` [Example 10, 4-[2-(4-{2-[3-(1-Methyl-1H-pyrazol-4-yl)-phenyl]-pyrimidin-5-yl}-pyrazol-1-yl)-ethyl]-morpholine] it was 0.1 to 1 µM; in that of `CC(C)N1C2CCCC1CC(n1cc(-c3cnc(-c4cccc(-c5cnn(C)c5)c4)nc3)cn1)C2` (centres unmarked) [Example 133, 9-Isopropyl-3-(4-{2-[3-(1-methyl-1H-pyrazol-4-yl)-phenyl]-pyrimidin-5-yl}-pyrazol-1-yl)-9-aza-bicyclo[3.3.1]nonane], 0.1 to 1 µM.
In the case of `OCc1cc(-c2cccc(-c3ncc(-c4cnn(C5CCOCC5)c4)cn3)c2)ccn1` [Example 151, [4-(3-{5-[1-(Tetrahydro-pyran-4-yl)-1H-pyrazol-4-yl]-pyrimidin-2-yl}-phenyl)-pyridin-2-yl]-methanol] it was 0.1 to 1 µM; in that of `Cn1cc(-c2cccc(-c3ncc(-c4cnn(CC(=O)N5CC6(COC6)C5)c4)cn3)c2)cn1` [Example 55, 2-(4-{2-[3-(1-Methyl-1H-pyrazol-4-yl)-phenyl]-pyrimidin-5-yl}-pyrazol-1-yl)-1-(2-oxa-6-aza-spiro[3.3]hept-6-yl)-ethanone], 0.1 to 1 µM; in that of `O=C(Cn1cc(-c2cnc(-c3cccc(-c4ccncc4)c3)nc2)cn1)N1CCCC1` [Example 43, 2-{4-[2-(3-Pyridin-4-yl-phenyl)-pyrimidin-5-yl]-pyrazol-1-yl}-1-pyrrolidin-1-yl-ethanone], 1 to 5 µM.
`C[C@H](CO)NC(=O)[C@H]1CC[C@H](n2cc(-c3cnc(-c4cccc(-c5cnn(C)c5)c4)nc3)cn2)CC1` [Example 199, Trans-4-(4-{2-[3-(1-Methyl-1H-pyrazol-4-yl)-phenyl]-pyrimidin-5-yl}-pyrazol-1-yl)-cyclohexanecarboxylic acid ((R)-2-hydroxy-1-methyl-ethyl)-amide]: the IC50 was less than 0.1 µM.
In the case of `Cn1cc(-c2cccc(-c3ncc(-c4cnn(C5C6COCC5CC(CO)C6)c4)cn3)c2)cn1` (centres unmarked) [Example 276, [9-(4-{2-[3-(1-Methyl-1H-pyrazol-4-yl)-phenyl]-pyrimidin-5-yl}-pyrazol-1-yl)-3-oxa-bicyclo[3.3.1]non-7-yl]-methanol] it was 0.1 to 1 µM; in that of `Cn1cc(-c2cccc(-c3ncc(-c4cnn(C5CCN(C(=O)C6CC(O)C6)CC5)c4)cn3)c2)cn1` (centres unmarked) [Example 120, (3-Hydroxy-cyclobutyl)-[4-(4-{2-[3-(1-methyl-1H-pyrazol-4-yl)-phenyl]-pyrimidin-5-yl}-pyrazol-1-yl)-piperidin-1-yl]-methanone], 0.1 to 1 µM; in that of `Cn1cc(-c2cccc(-c3ncc(-c4cnn(CC(=O)N5CCCC5)c4)cn3)c2)cn1` [Example 9, 2-(4-{2-[3-(1-Methyl-1H-pyrazol-4-yl)-phenyl]-pyrimidin-5-yl}-pyrazol-1-yl)-1-pyrrolidin-1-yl-ethanone], 0.1 to 1 µM.
In the case of `COCC(O)Cn1cc(-c2cnc(-c3cccc(-c4cnn(C)c4)c3)nc2)cn1` (centres unmarked) [Example 35, 1-Methoxy-3-(4-{2-[3-(1-methyl-1H-pyrazol-4-yl)-phenyl]-pyrimidin-5-yl}-pyrazol-1-yl)-propan-2-ol] it was 1 to 5 µM; in that of `Cn1cc(-c2cccc(-c3ncc(-c4cnn(CC(=O)N5CCC5)c4)cn3)c2)cn1` [Example 77, 1-Azetidin-1-yl-2-(4-{2-[3-(1-methyl-1H-pyrazol-4-yl)-phenyl]-pyrimidin-5-yl}-pyrazol-1-yl)-ethanone], 0.1 to 1 µM; in that of `Cn1cc(-c2cccc(-c3ncc(-c4cnn(C5CCC[C@@H](S(C)(=O)=O)C5)c4)cn3)c2)cn1` (single isomer, unassigned) [Example 282, 5-[1-(trans-3-Methanesulfonyl-cyclohexyl)-1H-pyrazol-4-yl]-2-[3-(1-methyl-1H-pyrazol-4-yl)-phenyl]-pyrimidine], 0.1 to 1 µM.
As for `COC1CN(C(=O)CCn2cc(-c3cnc(-c4cccc(-c5cnn(C)c5)c4)nc3)cn2)C1` [Example 100, 1-(3-Methoxy-azetidin-1-yl)-3-(4-{2-[3-(1-methyl-1H-pyrazol-4-yl)-phenyl]-pyrimidin-5-yl}-pyrazol-1-yl)-propan-1-one], the IC50 lay in the range of 1 to 5 µM.
In the case of `Cn1cc(-c2cccc(-c3ncc(-c4cnn(CCC5CCOCC5)c4)cn3)c2)cn1` [Example 69, 2-[3-(1-Methyl-1H-pyrazol-4-yl)-phenyl]-5-{1-[2-(tetrahydro-pyran-4-yl)-ethyl]-1H-pyrazol-4-yl}-pyrimidine] it was 0.1 to 1 µM; in that of `Cn1cc(-c2cccc(-c3ncc(-c4cnn(C5CCN(C6CCCOC6)CC5)c4)cn3)c2)cn1` (centres unmarked) [Example 270, 2-[3-(1-Methyl-1H-pyrazol-4-yl)-phenyl]-5-{1-[1-(tetrahydro-pyran-3-yl)-piperidin-4-yl]-1H-pyrazol-4-yl}-pyrimidine], less than 0.1 µM.
In the case of `COCCN(C)C(=O)[C@H]1CC[C@H](n2cc(-c3cnc(-c4cccc(-c5cnn(C)c5)c4)nc3)cn2)CC1` [Example 152, Trans-4-(4-{2-[3-(1-Methyl-1H-pyrazol-4-yl)-phenyl]-pyrimidin-5-yl}-pyrazol-1-yl)-cyclohexanecarboxylic acid (2-methoxy-ethyl)-methyl-amide] it was less than 0.1 µM; in that of `CC(=O)N1CC[C@H](n2cc(-c3cnc(-c4cccc(-c5cnn(C)c5)c4)nc3)cn2)[C@@H](O)C1` (single isomer, unassigned) [Example 202], 0.1 to 1 µM; in that of `O=C(Cn1cc(-c2cnc(-c3cccc(-c4cnco4)c3)nc2)cn1)N1CCOCC1` [Example 78, 1-Morpholin-4-yl-2-{4-[2-(3-oxazol-5-yl-phenyl)-pyrimidin-5-yl]-pyrazol-1-yl}-ethanone], 0.1 to 1 µM.
In the case of `COC1CCN(C(=O)Cn2cc(-c3cnc(-c4cccc(-c5cnn(C)c5)c4)nc3)cn2)C1` (centres unmarked) [Example 90, 1-(3-Methoxy-pyrrolidin-1-yl)-2-(4-{2-[3-(1-methyl-1H-pyrazol-4-yl)-phenyl]-pyrimidin-5-yl}-pyrazol-1-yl)-ethanone] it was 0.1 to 1 µM; in that of `CN1[C@@H]2CCC[C@H]1C[C@H](n1cc(-c3cnc(-c4cccc(-c5cnn(C)c5)c4)nc3)cn1)C2` [Example 142, Exo-9-Methyl-3-(4-{2-[3-(1-methyl-1H-pyrazol-4-yl)-phenyl]-pyrimidin-5-yl}-pyrazol-1-yl)-9-aza-bicyclo[3.3.1]nonane], 0.1 to 1 µM; in that of `CNC(=O)c1nn(C)cc1-c1cnc(-c2cccc(-c3cnn(C)c3)c2)nc1` [Example 144, 1-Methyl-4-{2-[3-(1-methyl-1H-pyrazol-4-yl)-phenyl]-pyrimidin-5-yl}-1H-pyrazole-3-carboxylic acid methylamide], 1 to 5 µM.
Regarding `Cn1cc(-c2cccc(-c3ncc(-c4cnn(CCc5ccncc5)c4)cn3)c2)cn1` [Example 53, 2-[3-(1-Methyl-1H-pyrazol-4-yl)-phenyl]-5-[1-(2-pyridin-4-yl-ethyl)-1H-pyrazol-4-yl]-pyrimidine], the IC50 is less than 0.1 µM.
As for `Cn1cc(-c2cccc(-c3ncc(-c4cnn([C@H]5CC[C@H](O)CC5)c4)cn3)c2)cn1` [Example 182, Trans-4-(4-{2-[3-(1-Methyl-1H-pyrazol-4-yl)-phenyl]-pyrimidin-5-yl}-pyrazol-1-yl)-cyclohexanol], the figure is less than 0.1 µM; as for `Cn1cc(-c2cccc(-c3ncc(-c4cnn(C5CC6COCC(C5)N6)c4)cn3)c2)cn1` (centres unmarked) [Example 179, 7-(4-{2-[3-(1-Methyl-1H-pyrazol-4-yl)-phenyl]-pyrimidin-5-yl}-pyrazol-1-yl)-3-oxa-9-aza-bicyclo[3.3.1]nonane], less than 0.1 µM.
`Cn1cc(-c2cccc(-c3ncc(-c4cnn([C@H]5CC[C@](O)(CO)CC5)c4)cn3)c2)cn1` [Example 258, Cis-1-Hydroxymethyl-4-(4-{2-[3-(1-methyl-1H-pyrazol-4-yl)-phenyl]-pyrimidin-5-yl}-pyrazol-1-yl)-cyclohexanol]: the IC50 is less than 0.1 µM.
As for `Cn1cc(-c2cccc(-c3ncc(-c4cnn(CCC(=O)N5CC6(COC6)C5)c4)cn3)c2)cn1` [Example 101, 3-(4-{2-[3-(1-Methyl-1H-pyrazol-4-yl)-phenyl]-pyrimidin-5-yl}-pyrazol-1-yl)-1-(2-oxa-6-aza-spiro[3.3]hept-6-yl)-propan-1-one], the figure is 1 to 5 µM.

For the origin of these results see patent US9216991B2 (Ares Trading S.A., priority 2012, dated 2015).
